Measured values taken from patent publication US10167257B2, “Indole derivatives for use in medicine” (IOmet Pharma Ltd., priority 2014, dated 2019).

Experiments:
human IDO protein = human IDO protein (Homo sapiens, UniProt P14902); test: IDO biochemical coupled assay (hIDO); conditions: 0.17 μM human IDO protein, biochemical coupled assay with formamidase
Source text: Two different types of assay were employed: 1. A TDO and IDO biochemical coupled assay which utilised recombinantly produced and purified TDO and IDO enzymes in combination with the enzyme formamidase. This coupled enzyme system allowed conversion of N-formylkynurenine produced by TDO or IDO activity to kynurenine which was then quantified by fluorescence following addition of Erhlich's Reagent. 2. A cell-based assay for detecting the effect of test compounds on kynurenine production in two different cancer cell types. This assay utilised cancer cells which expressed either TDO or IDO and as such was used as a means of testing compound activity at these two enzymes in a cell-based context. The protocols for these are set out below.
0.17 μM of human IDO protein was pre-incubated for 10 min or 120 min at RT with test compounds in the presence of 50 mM KPO4, pH 7.0, 0.5 mM EDTA, 0.5 mM EGTA, 0.05% Triton X-100, 20 mM ascorbate, 500 U/ml catalase, 10 μM methylene blue at RT in a 384 well plate. 0.05 μg/μl kynurenine formamidase and 45 μM or 121 μM L-tryptophan (L-Trp) were added and the assays were incubated at RT for 17 min. Assays were stopped and the level of kynurenine was determined by incubation with Ehrlich's reagent to a final concentration of 1.33% at RT for 5 min. Fluorescence intensity was read at 475 nm/530 nm.

TDO (A172 cells) = target: T1, TDO (A172 cells) (Homo sapiens, UniProt P48775); test: TDO cell-based assay (A172), kynurenine production; conditions: A172 human glioblastoma cells, 500 μM L-Trp, 48 h, kynurenine by absorbance at 490 nm
T1 construct: This assay utilised cancer cells which expressed either TDO or IDO; host or cells: A172 human glioblastoma cells
T1 sequence (P48775 whole entry): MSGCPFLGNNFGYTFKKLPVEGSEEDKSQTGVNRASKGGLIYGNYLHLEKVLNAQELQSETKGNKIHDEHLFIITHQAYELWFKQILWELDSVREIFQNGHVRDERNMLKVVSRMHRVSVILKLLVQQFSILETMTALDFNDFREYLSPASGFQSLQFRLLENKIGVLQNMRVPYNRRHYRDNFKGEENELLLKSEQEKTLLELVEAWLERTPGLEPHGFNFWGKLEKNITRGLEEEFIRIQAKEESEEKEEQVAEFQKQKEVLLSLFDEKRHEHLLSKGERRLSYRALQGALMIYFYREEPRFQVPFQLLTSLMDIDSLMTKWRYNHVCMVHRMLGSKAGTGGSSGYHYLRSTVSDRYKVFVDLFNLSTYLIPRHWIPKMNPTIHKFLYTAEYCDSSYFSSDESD
How it was run: (§1)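 Kynurenine output was read at 490 nm after 5 min with 1% Ehrlich's reagent, using supernatants from 48 h, 37 °C cultures containing 500 μM L-Trp and test compound. TDO activity came from A172 cells. IDO activity came from SKOV-3 cells, whose expression was induced by adding 500 ng/ml IFNγ.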

IDO (SKOV-3 cells) = target: T2, IDO (SKOV-3 cells) (Homo sapiens, UniProt P14902); test: IDO cell-based assay (SKOV-3, IFNγ-induced), kynurenine production; conditions: SKOV-3 ovary adenocarcinoma cells, IFNγ 500 ng/ml, 500 μM L-Trp, 48 h, kynurenine by absorbance at 490 nm
T2 construct: This assay utilised cancer cells which expressed either TDO or IDO; host or cells: SKOV-3 ovary adenocarcinoma cells, IFNγ-induced
T2 sequence (P14902 whole entry): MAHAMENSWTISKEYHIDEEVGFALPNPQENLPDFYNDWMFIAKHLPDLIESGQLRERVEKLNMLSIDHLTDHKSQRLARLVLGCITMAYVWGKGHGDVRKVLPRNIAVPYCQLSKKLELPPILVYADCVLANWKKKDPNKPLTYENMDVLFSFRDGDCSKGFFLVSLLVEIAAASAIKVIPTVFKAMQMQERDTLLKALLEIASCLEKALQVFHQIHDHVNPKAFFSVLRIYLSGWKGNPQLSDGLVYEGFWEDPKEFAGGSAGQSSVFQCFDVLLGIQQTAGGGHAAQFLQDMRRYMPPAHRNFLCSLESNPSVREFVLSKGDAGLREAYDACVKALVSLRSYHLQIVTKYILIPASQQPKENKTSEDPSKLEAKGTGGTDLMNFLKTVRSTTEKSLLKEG
How it was run: as §1

Chain of human IDO protein (P14902 whole entry): as above

Row | pIC50 in the hIDO assay (human IDO protein) | TDO cellular assay (A172) pIC50 (TDO (A172 cells)) | IDO cellular assay (SKOV3) pIC50 (IDO (SKOV-3 cells)) | SMILES
1 | 5.24 | − (− = pIC50 <4.50) | +++ (+++ = pIC50 ≥5.50) | CC(NC(=O)c1cc2cc(Cl)ccc2[nH]1)c1ccc(C(=O)N(C)C)cc1 (centres unmarked) [Compound 83]
2 |  | ++ (++ = pIC50 5.00-<5.50) | +++ (+++ = pIC50 ≥5.50) | Cc1cc(C(C)NC(=O)c2cc3cc(Cl)ccc3[nH]2)no1 (centres unmarked) [Compound 234]
3 |  | − (− = pIC50 <4.50) | +++ (+++ = pIC50 ≥5.50) | Cc1cc(C(C)NC(=O)c2cc3cc(C#N)ccc3[nH]2)no1 (centres unmarked) [Compound 235]
4 |  | − (− = pIC50 <4.50) | +++ (+++ = pIC50 ≥5.50) | Cn1cc(C2(NC(=O)c3cc4cc(C#N)ccc4[nH]3)COC2)cn1 [Compound 236]
5 |  | − (− = pIC50 <4.50) | ++ (++ = pIC50 5.00-<5.50) | O=C(NC(c1ccccc1)c1ccccc1)c1cc2cc(Cl)ccc2[nH]1 [Compound 237]
6 |  | − (− = pIC50 <4.50) | +++ (+++ = pIC50 ≥5.50) | Cn1cc(C2(NC(=O)c3cc4cc(Br)ccc4[nH]3)COC2)cn1 [Compound 238]
7 |  | − (− = pIC50 <4.50) | + (+ = pIC50 4.50-<5.00) | CC(NC(=O)c1cc2cc(OCc3ccccc3)ccc2[nH]1)c1cnn(C)c1 (centres unmarked) [Compound 239]
8 |  | − (− = pIC50 <4.50) | +++ (+++ = pIC50 ≥5.50) | O=C(NC1(c2ccccc2)CCCCC1)c1cc2cc(Cl)ccc2[nH]1 [Compound 240]
9 |  | − (− = pIC50 <4.50) | +++ (+++ = pIC50 ≥5.50) | CCc1ccc2[nH]c(C(=O)N[C@H](C)c3ccccc3)cc2c1 [Compound 241]
10 |  | − (− = pIC50 <4.50) | +++ (+++ = pIC50 ≥5.50) | CCc1ccc2[nH]c(C(=O)NC3(c4ccccc4)CC3)cc2c1 [Compound 242]
11 |  | − (− = pIC50 <4.50) | +++ (+++ = pIC50 ≥5.50) | CCc1ccc2[nH]c(C(=O)NC(C)c3cnn(C)c3)cc2c1 (centres unmarked) [Compound 243]
12 |  | − (− = pIC50 <4.50) | +++ (+++ = pIC50 ≥5.50) | O=C(NC1(c2ccc(F)cc2)COC1)c1cc2cc(Cl)ccc2[nH]1 [Compound 244]
13 |  | − (− = pIC50 <4.50) | +++ (+++ = pIC50 ≥5.50) | N#Cc1ccc2[nH]c(C(=O)NC3(c4ccc(F)cc4)COC3)cc2c1 [Compound 245]
14 |  | + (+ = pIC50 4.50-<5.00) | +++ (+++ = pIC50 ≥5.50) | O=C(NC1(c2ccccc2)CC1)C1Cc2cc(Cl)ccc2N1 (centres unmarked) [Compound 246]
15 |  | − (− = pIC50 <4.50) | +++ (+++ = pIC50 ≥5.50) | C[C@@H](NC(=O)c1cc2cc(OC(F)(F)F)ccc2[nH]1)c1ccccc1 [Compound 247]
16 |  | − (− = pIC50 <4.50) | +++ (+++ = pIC50 ≥5.50) | O=C(NC1(c2ccccc2)CC1)c1cc2cc(OC(F)(F)F)ccc2[nH]1 [Compound 248]
17 |  | + (+ = pIC50 4.50-<5.00) | +++ (+++ = pIC50 ≥5.50) | CC(NC(=O)c1cc2cc(OC(F)(F)F)ccc2[nH]1)c1cnn(C)c1 (centres unmarked) [Compound 249]
18 |  | − (− = pIC50 <4.50) | +++ (+++ = pIC50 ≥5.50) | Cn1cc(C2(NC(=O)c3cc4cc(Cl)ccc4[nH]3)CCCC2)cn1 [Compound 250]
19 |  | − (− = pIC50 <4.50) | +++ (+++ = pIC50 ≥5.50) | Cn1cc(C2(NC(=O)c3cc4cc(Cl)ccc4[nH]3)CCCCC2)cn1 [Compound 251]
20 |  | − (− = pIC50 <4.50) | +++ (+++ = pIC50 ≥5.50) | C[C@@H](NC(=O)c1cc2cc(Br)ccc2[nH]1)c1ccccc1 [Compound 252]
21 |  | − (− = pIC50 <4.50) | +++ (+++ = pIC50 ≥5.50) | O=C(NC1(c2ccccc2)CC1)c1cc2cc(Br)ccc2[nH]1 [Compound 253]

Row | pIC50 in the hIDO assay (human IDO protein) | TDO cellular assay (A172) pIC50 (TDO (A172 cells)) | IDO cellular assay (SKOV3) pIC50 (IDO (SKOV-3 cells)) | SMILES
22 |  | − (− = pIC50 <4.50) | +++ (+++ = pIC50 ≥5.50) | CC(NC(=O)c1cc2cc(Br)ccc2[nH]1)c1cnn(C)c1 (centres unmarked) [Compound 254]
23 |  | + (+ = pIC50 4.50-<5.00) | + (+ = pIC50 4.50-<5.00) | CN1CCC(C(NC(=O)c2cc3cc(Cl)ccc3[nH]2)c2ccccc2)CC1 (centres unmarked) [Compound 256]
24 |  | − (− = pIC50 <4.50) | +++ (+++ = pIC50 ≥5.50) | CCC(NC(=O)c1cc2cc(Cl)ccc2[nH]1)c1cnn(C)c1 (centres unmarked) [Compound 258]
25 |  | − (− = pIC50 <4.50) | +++ (+++ = pIC50 ≥5.50) | CC(C)C(NC(=O)c1cc2cc(Cl)ccc2[nH]1)c1cnn(C)c1 (centres unmarked) [Compound 259]
26 |  | + (+ = pIC50 4.50-<5.00) | +++ (+++ = pIC50 ≥5.50) | CC(C)Oc1ccc2[nH]c(C(=O)N[C@H](C)c3ccccc3)cc2c1 [Compound 260]
27 |  | − (− = pIC50 <4.50) | +++ (+++ = pIC50 ≥5.50) | CC(C)Oc1ccc2[nH]c(C(=O)NC3(c4ccccc4)CC3)cc2c1 [Compound 261]
28 |  | − (− = pIC50 <4.50) | + (+ = pIC50 4.50-<5.00) | CC(C)Oc1ccc2[nH]c(C(=O)NC(C)c3cnn(C)c3)cc2c1 (centres unmarked) [Compound 262]
29 |  | − (− = pIC50 <4.50) | +++ (+++ = pIC50 ≥5.50) | Cn1cc(C2(NC(=O)c3cc4cc(Br)ccc4[nH]3)CC2)cn1 [Compound 263]
30 |  | − (− = pIC50 <4.50) | +++ (+++ = pIC50 ≥5.50) | CCc1ccc2[nH]c(C(=O)NC3(c4cnn(C)c4)CC3)cc2c1 [Compound 264]
31 |  | − (− = pIC50 <4.50) | +++ (+++ = pIC50 ≥5.50) | CC(C)Oc1ccc2[nH]c(C(=O)NC3(c4cnn(C)c4)CC3)cc2c1 [Compound 265]
32 |  | − (− = pIC50 <4.50) | +++ (+++ = pIC50 ≥5.50) | Cn1cc(C2(NC(=O)c3cc4cc(Cl)ccc4[nH]3)CCOCC2)cn1 [Compound 266]
33 |  | ++ (++ = pIC50 5.00-<5.50) | +++ (+++ = pIC50 ≥5.50) | CC(Cc1cnn(C)c1)NC(=O)c1cc2cc(Cl)ccc2[nH]1 (centres unmarked) [Compound 267]
34 |  | − (− = pIC50 <4.50) | +++ (+++ = pIC50 ≥5.50) | Cn1cc(C2(NC(=O)c3cc4cc(Br)ccc4[nH]3)CCC2)cn1 [Compound 268]
35 |  | − (− = pIC50 <4.50) | +++ (+++ = pIC50 ≥5.50) | Cn1cc(C2(NC(=O)c3cc4cc(OC(F)(F)F)ccc4[nH]3)CCC2)cn1 [Compound 269]
36 |  | − (− = pIC50 <4.50) | +++ (+++ = pIC50 ≥5.50) | CCOc1ccc2[nH]c(C(=O)N[C@H](C)c3ccccc3)cc2c1 [Compound 270]
37 |  | ++ (++ = pIC50 5.00-<5.50) | +++ (+++ = pIC50 ≥5.50) | CCOc1ccc2[nH]c(C(=O)NC3(c4ccccc4)CC3)cc2c1 [Compound 271]
38 |  | − (− = pIC50 <4.50) | +++ (+++ = pIC50 ≥5.50) | CCOc1ccc2[nH]c(C(=O)NC(C)c3cnn(C)c3)cc2c1 (centres unmarked) [Compound 272]
39 |  | − (− = pIC50 <4.50) | +++ (+++ = pIC50 ≥5.50) | CCOc1ccc2[nH]c(C(=O)NC3(c4cnn(C)c4)CC3)cc2c1 [Compound 273]
40 |  | − (− = pIC50 <4.50) | +++ (+++ = pIC50 ≥5.50) | O=C(NC1(c2cocn2)CC1)c1cc2cc(Cl)ccc2[nH]1 [Compound 274]
41 |  | − (− = pIC50 <4.50) | +++ (+++ = pIC50 ≥5.50) | Cn1cc(C2(NC(=O)c3cc4cc(OC(F)(F)F)ccc4[nH]3)CC2)cn1 [Compound 275]
